Results taken from publication PMC5681660, “Reduced hepatitis B and D viral entry using clinically applied drugs as novel inhibitors of the bile acid transporter NTCP” (Scientific Reports, 2017).
Where a name gives a salt, the structure may show the parent alone. Read-outs that look alike come from different tables or passages of the source.

Key:
human NTCP [1] = target: T1, human NTCP (Homo sapiens, UniProt Q14973); assay: Taurocholate uptake inhibition studies in U2OS-HA-hNTCP cells; format: cell-based; parameters: HA; expressed in transfected cells; conditions: for IC50: U2OS-HA-hNTCP cells, concentrations 1 nM to 10 mM, read-out: IC50 for hNTCP-mediated TC uptake; for Taurocholate uptake into U2OS-HA-hNTCP cells (in words): increasing drug concentrations
T1 sequence (Q14973 1-349): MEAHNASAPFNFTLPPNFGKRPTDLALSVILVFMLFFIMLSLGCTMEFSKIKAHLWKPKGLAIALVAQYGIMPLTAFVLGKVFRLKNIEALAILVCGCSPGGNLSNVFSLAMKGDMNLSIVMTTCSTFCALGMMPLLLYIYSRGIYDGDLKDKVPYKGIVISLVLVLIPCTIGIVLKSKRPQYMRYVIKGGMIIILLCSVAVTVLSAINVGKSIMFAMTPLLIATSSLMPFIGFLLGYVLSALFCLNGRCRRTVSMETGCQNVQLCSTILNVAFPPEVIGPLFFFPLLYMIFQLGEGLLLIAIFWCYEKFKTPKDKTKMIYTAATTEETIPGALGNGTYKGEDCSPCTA
Experimental: For MDCK or MDCK-hASBT cells 70.000 cells/well were plated in 24-well plates, followed by 24 hours 10 mM sodium butyrate (Sigma-Aldrich) stimulation the next day. Cells were used in the inhibition studies 24 hours (U2OS cell lines) or 48 hours (MDCK cell lines) later. Inhibition studies with mNTCP transiently transfected cells were conducted 48–72 hours after transfection.
Medium was aspirated from the wells and cells were washed once with 250 µL uptake buffer. Subsequently, cells were pre-incubated with drug in 150 µL uptake buffer for 10 minutes at 37 °C. Taurocholate uptake was initiated by addition of 100 µL uptake buffer containing taurocholate (final concentration 10 µM TC spiked with tritium-labeled TC) and cells were incubated for 2 minutes at 37 °C. Subsequently, cells were washed 4 times with ice-cold PBS and lysed with 0.05% SDS in water. Radioactivity was measured by liquid scintillation counting.

U2OS-HA-hNTCP cells = conditions: 2 hours
human NTCP [2] = target: T1, human NTCP; assay: Myrcludex B-FITC binding by confocal microscopy in U2OS-HA-hNTCP cells; parameters: HA; expressed in transfected cells; conditions: for Myrcludex B-FITC fluorescence / binding to U2OS-HA-hNTCP cells (in words): co-administration with increasing amounts of drug; for ≥50% loss of Myrcludex B binding to hNTCP (concentration): confocal microscopy, 0.2 µM Myrcludex B-FITC, drug 1, 10, 100 µM, concentration at which binding inhibited minimally 50%
Experimental: After 24 hours, medium was aspirated and cells were washed once with 300 µl Leibovitz’s L-15 Medium (Invitrogen). A 30 minute incubation period followed in which all cells were incubated with 0.2 µM Myrcludex B-FITC with or without drug (1, 10, 100 µM) and Hoechst (1/1000) in 300 µL Leibovitz’s L-15 Medium. Cells were washed twice with Leibovitz’s L-15 Medium and subsequently 400 µL Leibovitz’s L-15 Medium was added. Live cell fluorescent imaging was performed using a Leica SP8X-SMD confocal microscope with fully enclosed incubation at 37 °C. A 63x oil objective was used and images were captured while the cells were consecutively excited at 490 nm (FITC) 350 nm (Hoechst). ImageJ software (National Insititutes of Health, Bethesda, MD) was employed for data analysis.

U2OS cells = assay: WST-1 cytotoxicity, wildtype U2OS cells; conditions: U2OS cells, 2 hours
in vitro = conditions: human, U2OS-HA-hNTCP cells
[3] = WST-1 cytotoxicity, wildtype U2OS cells; conditions: human, wildtype U2OS cells
human NTCP [4] = target: T1, human NTCP; assay: Screening taurocholate uptake assay (96-well, [14C]taurocholate, 10 µM drug)
human NTCP [5] = target: T1, human NTCP; assay: Screening fluorescent competitive Myrcludex B-FITC binding assay (96-well, 10 µM drug)
[6] = Prestwick library screen, 10 µM drug, B-score of taurocholate uptake
[7] = combined ranking from functional and binding assay B-scores
[8] = Prestwick library screen, 10 µM drug, B-score of Myrcludex B-FITC binding
[9] = combined ranking from functional and binding screening assays
[10] = screen, 10 µM drug, taurocholate uptake
[11] = screen, 10 µM drug, Myrcludex B-FITC binding
[12] = Prestwick library screen, taurocholate uptake, 10 µM drug
[13] = ranking score beside the functional and binding assay B-scores of the screen
[14] = Prestwick library screen, Myrcludex B-FITC binding, 10 µM drug

| Compound | B-score functional assay (human NTCP [4]; [6]) | Ranking score (human NTCP [4]; [7]) | B-score binding assay (human NTCP [5]; [8]) | Ranking score (human NTCP [4]; [9]) | B-score functional assay (human NTCP [4]; [10]) | B-score binding assay (human NTCP [5]; [11]) | other results |
| --- | --- | --- | --- | --- | --- | --- | --- |
| CS(=O)(=O)O.Cc1c(O)cccc1C(=O)N[C@@H](CSc1ccccc1)[C@H](O)CN1C[C@H]2CCCC[C@H]2C[C@H]1C(=O)NC(C)(C)C [Nelfinavir Mesylate Hydrate] | – | – | – | – | – | – | IC50 (human NTCP [1]): 134 µM; Taurocholate uptake into U2OS-HA-hNTCP cells (in words) (human NTCP [1]): reduced in a dose-dependent fashion; cell viability by WST-1 (U2OS-HA-hNTCP cells; 1 µM): 105.3 ± 7.1%; cell viability by WST-1 (U2OS-HA-hNTCP cells; 10 µM): 99.8 ± 5.2%; cell viability by WST-1 (U2OS-HA-hNTCP cells; 100 µM): 104.8 ± 4.5%; Myrcludex B-FITC fluorescence / binding to U2OS-HA-hNTCP cells (in words) (human NTCP [2]): reduced Myrcludex B-FITC fluorescence; ≥50% loss of Myrcludex B binding to hNTCP (concentration) (human NTCP [2]): ≥100 µM; cell viability by WST-1 (U2OS cells; 1 µM): 105.9 ± 8.4%; cell viability by WST-1 (U2OS cells; 10 µM): 102 ± 10.7%; cell viability by WST-1 (U2OS cells; 100 µM): 95.1 ± 5.6% |
| CC(C)c1ccc2oc3nc(N)c(C(=O)O)cc3c(=O)c2c1 [Amlexanox] | – | – | – | – | – | – | viability at 2 h, 1 µM (in vitro): 99.6 ± 6.1%; viability at 2 h, 10 µM (in vitro): 102 ± 18.9%; viability at 2 h, 100 µM (in vitro): 92.7 ± 17.8%; viability at 2 h, 1 µM [3]: 88.2 ± 9.6%; viability at 2 h, 10 µM [3]: 94.8 ± 13.8%; viability at 2 h, 100 µM [3]: 77.3 ± 5.6% |
| Cc1cc(-n2c(=O)[nH]c(=O)n(C)c2=O)ccc1Oc1ccc(SC(F)(F)F)cc1 [Toltrazuril] | – | – | – | – | – | – | Ranking score (human NTCP [4]; ranking over the functional and the binding screening assay): 35.4965; B-score functional assay (human NTCP [4]; screening taurocholate uptake, 10 µM drug): -3.14; IC50 (human NTCP [1]): 84.1 µM; Taurocholate uptake into U2OS-HA-hNTCP cells (in words) (human NTCP [1]): reduced in a dose-dependent fashion; Myrcludex B-FITC fluorescence / binding to U2OS-HA-hNTCP cells (in words) (human NTCP [2]): reduced Myrcludex B-FITC fluorescence; ≥50% loss of Myrcludex B binding to hNTCP (concentration) (human NTCP [2]): ≥10 µM; viability at 2 h, 1 µM (in vitro): 100 ± 9.9%; viability at 2 h, 10 µM (in vitro): 109 ± 12.9%; viability at 2 h, 100 µM (in vitro): 105 ± 11.4%; viability at 2 h, 1 µM [3]: 115 ± 6.1%; viability at 2 h, 10 µM [3]: 109 ± 11.8%; viability at 2 h, 100 µM [3]: 101 ± 3.6% |
| CCCCOc1ccc(OCCCN2CCOCC2)cc1 [Pramoxine hydrochloride] | 1.223 | 1022.18 | 0.619 | – | – | – | – |
| COCCc1ccc(OCC(O)CNC(C)C)cc1.COCCc1ccc(OCC(O)CNC(C)C)cc1.O=C(O)C(O)C(O)C(=O)O (racemic) [Metoprolol-(+,-) (+)-tartrate salt] | – | – | – | 295.567 | -0.726 | -0.835 | – |
| CCC[C@@H]1C[C@@H](C(=O)N[C@@H]([C@H]2O[C@H](SC)[C@H](O)[C@@H](O)[C@H]2O)[C@@H](C)O)N(C)C1 [Lincomycin hydrochloride] | 0.903 | 960.458 | 0.419 | – | – | – | – |
| CC(=O)O[C@]1(C(C)=O)CC[C@H]2[C@@H]3C=C(Cl)C4=CC(=O)[C@@H]5C[C@@H]5[C@]4(C)[C@H]3CC[C@@]21C [Cyproterone acetate] | – | – | – | – | – | – | B-score functional assay (human NTCP [4]; [12]): -0.245; Ranking score (human NTCP [4]; [13]): 678.19; B-score binding assay (human NTCP [5]; [14]): 0.796 |
| COc1ccc(-c2cc(=S)ss2)cc1 [Anethole-trithione] | – | – | – | – | – | – | B-score functional assay (human NTCP [4]; [12]): 0.437; Ranking score (human NTCP [4]; [13]): 719.937; B-score binding assay (human NTCP [5]; [14]): -0.048 |
| O=C(NCNC(=O)NC1C(=O)NC(=O)N1CO)NC1C(=O)NC(=O)N1CO (stereo not shown) [Imidurea] | 1.058 | 960.608 | 0.346 | – | – | – | – |
| O=C1CN2Cc3c(ccc(Cl)c3Cl)N=C2N1 [Anagrelide] | 0.197 | 871.654 | 0.622 | – | – | – | – |
| OC[C@H]1O[C@@H](Oc2ccc(O)cc2)[C@H](O)[C@@H](O)[C@@H]1O [Arbutin] | 0.864 | 944.447 | 0.372 | – | – | – | – |
| CC1(C)O[C@@H]2[C@@H](CO[C@@]3(COS(N)(=O)=O)OC(C)(C)O[C@@H]23)O1 [Topiramate] | – | – | – | – | – | – | B-score functional assay (human NTCP [4]; [12]): 1.004; Ranking score (human NTCP [4]; [13]): 700.689; B-score binding assay (human NTCP [5]; [14]): -0.268 |
| Cc1c(N)c(=O)n(-c2ccccc2)n1C [Ampyrone] | – | – | – | – | – | – | B-score functional assay (human NTCP [4]): 0.135; Ranking score (human NTCP [4]): 788.348; B-score binding assay (human NTCP [5]): 0.217 |

The next lines start with results.

| B-score functional assay (human NTCP [4]; [6]) | Ranking score (human NTCP [4]; [7]) | B-score binding assay (human NTCP [5]; [8]) | Ranking score (human NTCP [4]; [9]) | B-score functional assay (human NTCP [4]; [10]) | B-score binding assay (human NTCP [5]; [11]) | Compound | other results |
| --- | --- | --- | --- | --- | --- | --- | --- |
| – | – | – | 440.15 | -0.747 | -0.002 | CC(=O)Oc1cc(C(F)(F)F)ccc1C(=O)O [Triflusal] | – |
| – | – | – | 383.15 | -1.233 | 0.039 | CC(C)C(=O)Nc1ccc([N+](=O)[O-])c(C(F)(F)F)c1 [Flutamide] | – |
| – | – | – | 422.428 | -0.433 | -0.298 | COc1ccc2cc([C@H](C)C(=O)O)ccc2c1 [Naproxen] | – |
| 0.776 | 1078.72 | 1.631 | – | – | – | Cc1cc(C2CCCCC2)n(O)c(=O)c1.NCCO [Ciclopirox ethanolamine] | – |
| – | – | – | 378.616 | -0.022 | -1.032 | COC(=O)C1=C(C)NC(C)=C(C(=O)OCCN(C)Cc2ccccc2)C1c1cccc([N+](=O)[O-])c1 (stereo not shown) [Nicardipine hydrochloride] | – |
| – | – | – | 436.134 | -1.625 | 1.504 | CC[N+](C)(C)Cc1ccccc1Br [Bretylium tosylate] | – |
| – | – | – | 295.014 | -0.349 | -1.253 | NC1CCN(c2c(F)cc3c(=O)c(C(=O)O)cn(C4CC4)c3c2Cl)C1 (stereo not shown) [Clinafloxacin] | – |
| 1.973 | 1054.65 | 0.555 | – | – | – | Cc1nnc(NS(=O)(=O)c2ccc(N)cc2)s1 [Sulfamethizole] | – |
| 0.673 | 1088.5 | 2.397 | – | – | – | CCOC(=O)[C@@](C)(N)Cc1ccc(O)c(O)c1 [Methyldopate hydrochloride] | – |
